% of inhibition, % of control and pXC50 data for ten compounds are collected here from ChEMBL document CHEMBL5465560, “Selectivity Literature for EUbOPEN Chemogenomic Library” (2024).

Assay [1] concerns the target T1, Tyrosine-protein kinase Mer (Homo sapiens) (UniProt Q12866).
T1 sequence (whole entry): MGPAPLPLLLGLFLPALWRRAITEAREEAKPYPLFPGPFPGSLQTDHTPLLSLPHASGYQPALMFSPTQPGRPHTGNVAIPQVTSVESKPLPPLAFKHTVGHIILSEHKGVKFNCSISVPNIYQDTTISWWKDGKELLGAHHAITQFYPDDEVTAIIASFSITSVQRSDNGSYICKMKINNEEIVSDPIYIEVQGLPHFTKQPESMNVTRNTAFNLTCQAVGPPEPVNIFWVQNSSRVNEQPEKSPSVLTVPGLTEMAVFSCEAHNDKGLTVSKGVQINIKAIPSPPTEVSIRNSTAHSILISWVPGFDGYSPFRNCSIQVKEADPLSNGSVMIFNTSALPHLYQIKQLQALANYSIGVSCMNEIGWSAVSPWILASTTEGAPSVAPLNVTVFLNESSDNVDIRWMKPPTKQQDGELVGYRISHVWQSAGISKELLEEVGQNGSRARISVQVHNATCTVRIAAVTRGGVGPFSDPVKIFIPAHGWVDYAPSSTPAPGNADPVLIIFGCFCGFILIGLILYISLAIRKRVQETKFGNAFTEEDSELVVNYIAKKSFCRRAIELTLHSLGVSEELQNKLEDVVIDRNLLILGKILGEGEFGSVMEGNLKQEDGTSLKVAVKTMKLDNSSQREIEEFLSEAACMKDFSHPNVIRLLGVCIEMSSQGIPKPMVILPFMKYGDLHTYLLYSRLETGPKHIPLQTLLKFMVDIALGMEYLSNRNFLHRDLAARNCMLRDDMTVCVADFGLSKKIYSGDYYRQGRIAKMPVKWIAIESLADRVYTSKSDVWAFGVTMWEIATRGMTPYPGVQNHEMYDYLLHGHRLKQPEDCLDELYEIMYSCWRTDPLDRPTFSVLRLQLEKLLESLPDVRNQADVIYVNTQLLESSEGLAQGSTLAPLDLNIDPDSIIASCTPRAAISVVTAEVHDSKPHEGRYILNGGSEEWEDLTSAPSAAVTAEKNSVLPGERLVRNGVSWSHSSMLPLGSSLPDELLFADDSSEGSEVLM
Briefly: Selectivity interaction (Upstate Kinase Profiler service (Millipore)) EUB0000056c MERTK. The note with it: at 1 µM.

Assay [2] has as its target Casein kinase II subunit alpha' (Homo sapiens) (UniProt P19784). Put plainly: Selectivity interaction (KinomeScan (DiscoverX)) EUB0001049a CSNK2A2. The note with it: at 1 µM.
The target of assay [3] is Serine/threonine-protein kinase pim-1 (Homo sapiens, UniProt P11309). Put plainly: Selectivity interaction (KinomeScan (DiscoverX)) EUB0001049a PIM1. The settings on record: at 1 µM.
For assay [4], the target named is T2, Muscarinic acetylcholine receptor M1 (Homo sapiens) (UniProt P11229).
T2 sequence (whole entry): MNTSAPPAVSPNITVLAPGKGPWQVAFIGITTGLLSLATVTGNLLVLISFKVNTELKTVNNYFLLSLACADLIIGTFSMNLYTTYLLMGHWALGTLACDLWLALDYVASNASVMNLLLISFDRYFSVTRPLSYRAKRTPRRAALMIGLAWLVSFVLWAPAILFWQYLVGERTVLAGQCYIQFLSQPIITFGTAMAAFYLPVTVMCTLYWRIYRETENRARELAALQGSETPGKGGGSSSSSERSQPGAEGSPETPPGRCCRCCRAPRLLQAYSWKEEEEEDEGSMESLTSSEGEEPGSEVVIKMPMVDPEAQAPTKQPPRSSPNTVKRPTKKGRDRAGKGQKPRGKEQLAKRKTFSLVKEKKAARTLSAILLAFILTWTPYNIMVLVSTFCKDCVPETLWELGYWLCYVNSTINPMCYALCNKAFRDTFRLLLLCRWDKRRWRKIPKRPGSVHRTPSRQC
Briefly: Selectivity interaction (Panel of kinases, GPCRs, ion channels and transporters (enzymatic assay)) EUB0000223bCl CHRM1.

Assay [5] has as its target Tyrosine-protein kinase Blk (Homo sapiens) (UniProt P51451). Briefly: Selectivity interaction (Kinase screening (Upstate/Millipore)) EUB0000604a BLK.
Assay [6] addresses Cyclin-dependent kinase 17 (Homo sapiens) (UniProt Q00537). Put plainly: Selectivity interaction (KinomeScan (DiscoverX)) EUB0000045b CDK17.
The target of assay [7] is 5'-AMP-activated protein kinase catalytic subunit alpha-2 (Homo sapiens) (UniProt P54646). Briefly: Selectivity interaction (KinomeScan (DiscoverX)) EUB0000666a PRKAA2. The settings on record: at 10 µM.
Assay [8] has as its target Serine/threonine-protein kinase B-raf (Homo sapiens) (UniProt P15056). Put plainly: Selectivity interaction (Kinase panel (Invitrogen)) EUB0000639a BRAF. The note with it: at 200 nM.
In assay [9] the target is Mitogen-activated protein kinase 4 (Homo sapiens) (UniProt P31152). Put plainly: Selectivity interaction (KinomeScan (DiscoverX)) EUB0000595a MAPK4. The note with it: at 10 µM.
In assay [10] the target is Serine/threonine-protein kinase 26 (Homo sapiens, UniProt Q9P289). The settings on record: PBMC, at 1 µM.
The target of assay [11] is Atypical kinase COQ8A, mitochondrial (Homo sapiens, UniProt Q8NI60). Put plainly: Selectivity interaction (KinomeScan (DiscoverX)) EUB0000618a ADCK3. The settings on record: at 10 µM.
Atypical kinase COQ8A, mitochondrial, sequence (Q8NI60 163-647 limits assumed): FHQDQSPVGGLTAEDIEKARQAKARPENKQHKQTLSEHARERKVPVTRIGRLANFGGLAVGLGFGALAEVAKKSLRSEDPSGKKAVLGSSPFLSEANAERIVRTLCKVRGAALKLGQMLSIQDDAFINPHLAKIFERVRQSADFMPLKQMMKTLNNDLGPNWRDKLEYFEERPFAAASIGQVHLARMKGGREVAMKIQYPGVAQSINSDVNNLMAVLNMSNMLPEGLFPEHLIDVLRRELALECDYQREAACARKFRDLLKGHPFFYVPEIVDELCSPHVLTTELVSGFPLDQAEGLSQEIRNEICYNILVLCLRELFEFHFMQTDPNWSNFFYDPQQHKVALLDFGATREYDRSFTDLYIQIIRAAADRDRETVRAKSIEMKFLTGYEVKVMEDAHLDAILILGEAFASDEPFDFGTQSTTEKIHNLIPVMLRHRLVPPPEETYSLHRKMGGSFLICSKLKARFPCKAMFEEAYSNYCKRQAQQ

Cyclin-dependent kinase 17 (Homo sapiens), sequence (Q00537 whole entry, looked up): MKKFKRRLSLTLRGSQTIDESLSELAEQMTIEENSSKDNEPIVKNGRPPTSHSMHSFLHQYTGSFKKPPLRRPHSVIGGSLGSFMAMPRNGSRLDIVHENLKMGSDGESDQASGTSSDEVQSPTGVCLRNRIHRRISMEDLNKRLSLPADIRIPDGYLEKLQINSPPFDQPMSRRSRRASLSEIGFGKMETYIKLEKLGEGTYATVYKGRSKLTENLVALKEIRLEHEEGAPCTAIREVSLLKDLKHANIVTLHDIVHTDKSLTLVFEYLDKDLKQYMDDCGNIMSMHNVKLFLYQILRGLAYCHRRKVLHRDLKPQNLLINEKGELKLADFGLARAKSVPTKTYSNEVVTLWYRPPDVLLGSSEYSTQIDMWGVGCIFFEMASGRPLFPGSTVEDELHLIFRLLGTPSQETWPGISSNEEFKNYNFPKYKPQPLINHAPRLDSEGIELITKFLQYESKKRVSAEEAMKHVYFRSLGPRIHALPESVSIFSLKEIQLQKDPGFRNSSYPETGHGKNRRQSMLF
Serine/threonine-protein kinase pim-1, sequence (P11309 whole entry, looked up): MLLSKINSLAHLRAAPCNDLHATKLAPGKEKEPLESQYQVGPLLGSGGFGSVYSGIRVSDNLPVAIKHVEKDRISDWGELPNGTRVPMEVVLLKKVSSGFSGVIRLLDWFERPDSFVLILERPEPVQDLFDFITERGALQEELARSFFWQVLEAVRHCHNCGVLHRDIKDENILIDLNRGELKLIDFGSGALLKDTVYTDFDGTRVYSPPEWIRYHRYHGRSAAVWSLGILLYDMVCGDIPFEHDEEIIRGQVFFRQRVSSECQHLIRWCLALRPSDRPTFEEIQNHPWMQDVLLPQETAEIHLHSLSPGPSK
Tyrosine-protein kinase Blk (Homo sapiens), sequence (P51451 2-505 limits assumed): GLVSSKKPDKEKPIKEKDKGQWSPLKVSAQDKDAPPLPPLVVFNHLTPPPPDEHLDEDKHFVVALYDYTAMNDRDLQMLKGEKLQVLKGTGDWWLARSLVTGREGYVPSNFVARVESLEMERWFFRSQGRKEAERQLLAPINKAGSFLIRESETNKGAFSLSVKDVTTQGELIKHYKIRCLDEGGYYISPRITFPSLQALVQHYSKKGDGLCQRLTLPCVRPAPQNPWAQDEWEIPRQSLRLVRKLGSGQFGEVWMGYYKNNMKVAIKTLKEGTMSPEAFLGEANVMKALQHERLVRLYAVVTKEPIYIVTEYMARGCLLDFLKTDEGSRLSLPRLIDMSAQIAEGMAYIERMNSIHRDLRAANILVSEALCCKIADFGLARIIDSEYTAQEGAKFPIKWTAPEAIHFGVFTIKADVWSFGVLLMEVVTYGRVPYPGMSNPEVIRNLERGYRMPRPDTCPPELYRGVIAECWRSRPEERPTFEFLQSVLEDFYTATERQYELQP
Serine/threonine-protein kinase B-raf (Homo sapiens), sequence (P15056 whole entry): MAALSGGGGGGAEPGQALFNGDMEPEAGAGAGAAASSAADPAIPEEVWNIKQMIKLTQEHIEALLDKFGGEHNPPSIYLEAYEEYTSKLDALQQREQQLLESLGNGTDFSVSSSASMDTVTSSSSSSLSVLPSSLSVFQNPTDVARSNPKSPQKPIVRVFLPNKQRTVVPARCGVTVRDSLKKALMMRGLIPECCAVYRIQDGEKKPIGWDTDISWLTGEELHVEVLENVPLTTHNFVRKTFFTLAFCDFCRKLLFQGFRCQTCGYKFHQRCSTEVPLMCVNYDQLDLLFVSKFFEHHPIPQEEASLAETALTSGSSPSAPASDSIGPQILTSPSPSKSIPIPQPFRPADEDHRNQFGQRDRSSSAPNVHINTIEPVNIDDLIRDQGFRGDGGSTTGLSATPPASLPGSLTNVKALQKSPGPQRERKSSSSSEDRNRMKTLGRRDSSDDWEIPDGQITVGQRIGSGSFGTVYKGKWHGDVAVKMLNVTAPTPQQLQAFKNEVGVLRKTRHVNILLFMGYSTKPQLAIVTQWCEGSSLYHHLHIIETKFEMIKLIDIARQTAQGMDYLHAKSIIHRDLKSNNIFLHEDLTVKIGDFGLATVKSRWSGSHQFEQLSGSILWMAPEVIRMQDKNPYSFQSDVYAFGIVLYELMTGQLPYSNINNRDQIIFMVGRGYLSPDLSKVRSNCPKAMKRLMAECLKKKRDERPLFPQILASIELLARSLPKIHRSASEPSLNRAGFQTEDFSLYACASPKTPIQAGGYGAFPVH
Mitogen-activated protein kinase 4 (Homo sapiens), sequence (P31152 whole entry): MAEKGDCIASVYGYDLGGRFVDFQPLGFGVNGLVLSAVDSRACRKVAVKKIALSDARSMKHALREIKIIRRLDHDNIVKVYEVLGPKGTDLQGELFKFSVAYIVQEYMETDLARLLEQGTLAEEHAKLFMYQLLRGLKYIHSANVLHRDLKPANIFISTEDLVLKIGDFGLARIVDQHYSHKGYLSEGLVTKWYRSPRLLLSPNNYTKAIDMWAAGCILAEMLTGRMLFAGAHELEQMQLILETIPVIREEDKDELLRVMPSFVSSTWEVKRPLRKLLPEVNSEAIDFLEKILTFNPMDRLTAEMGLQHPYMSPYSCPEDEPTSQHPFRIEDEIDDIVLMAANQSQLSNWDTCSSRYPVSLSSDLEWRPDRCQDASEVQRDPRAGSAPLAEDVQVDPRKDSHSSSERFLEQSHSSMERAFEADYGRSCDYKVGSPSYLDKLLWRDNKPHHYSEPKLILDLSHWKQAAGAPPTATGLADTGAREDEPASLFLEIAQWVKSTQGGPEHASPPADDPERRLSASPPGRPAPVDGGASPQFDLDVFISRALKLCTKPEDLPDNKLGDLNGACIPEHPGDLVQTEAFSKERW
5'-AMP-activated protein kinase catalytic subunit alpha-2 (Homo sapiens), sequence (P54646 whole entry, looked up): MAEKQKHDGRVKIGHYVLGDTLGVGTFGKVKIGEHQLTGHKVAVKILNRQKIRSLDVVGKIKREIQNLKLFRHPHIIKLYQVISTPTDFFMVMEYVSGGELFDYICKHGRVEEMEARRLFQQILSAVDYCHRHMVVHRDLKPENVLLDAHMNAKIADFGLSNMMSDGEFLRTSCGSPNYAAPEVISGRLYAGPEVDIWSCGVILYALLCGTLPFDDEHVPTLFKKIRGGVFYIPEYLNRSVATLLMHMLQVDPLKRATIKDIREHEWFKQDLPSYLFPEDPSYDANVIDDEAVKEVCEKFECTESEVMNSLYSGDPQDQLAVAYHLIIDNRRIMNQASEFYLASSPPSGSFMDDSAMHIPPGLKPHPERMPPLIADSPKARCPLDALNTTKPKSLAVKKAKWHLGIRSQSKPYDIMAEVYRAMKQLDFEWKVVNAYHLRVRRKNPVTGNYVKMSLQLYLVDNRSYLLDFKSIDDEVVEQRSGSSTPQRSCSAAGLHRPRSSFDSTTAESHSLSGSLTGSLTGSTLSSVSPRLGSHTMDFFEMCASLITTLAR
Serine/threonine-protein kinase 26, sequence (Q9P289 2-416 limits assumed): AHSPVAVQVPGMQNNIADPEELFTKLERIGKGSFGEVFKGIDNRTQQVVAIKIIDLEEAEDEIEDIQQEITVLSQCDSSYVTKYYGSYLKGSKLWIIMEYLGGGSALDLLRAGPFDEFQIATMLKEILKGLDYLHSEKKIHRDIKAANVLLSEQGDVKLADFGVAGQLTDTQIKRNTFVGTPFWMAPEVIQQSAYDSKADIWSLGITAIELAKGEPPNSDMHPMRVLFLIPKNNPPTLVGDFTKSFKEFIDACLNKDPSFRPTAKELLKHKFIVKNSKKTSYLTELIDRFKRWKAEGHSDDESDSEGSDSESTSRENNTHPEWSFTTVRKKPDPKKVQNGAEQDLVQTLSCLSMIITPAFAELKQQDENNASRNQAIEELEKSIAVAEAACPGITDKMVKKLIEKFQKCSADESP
Casein kinase II subunit alpha' (Homo sapiens), sequence (P19784 whole entry, looked up): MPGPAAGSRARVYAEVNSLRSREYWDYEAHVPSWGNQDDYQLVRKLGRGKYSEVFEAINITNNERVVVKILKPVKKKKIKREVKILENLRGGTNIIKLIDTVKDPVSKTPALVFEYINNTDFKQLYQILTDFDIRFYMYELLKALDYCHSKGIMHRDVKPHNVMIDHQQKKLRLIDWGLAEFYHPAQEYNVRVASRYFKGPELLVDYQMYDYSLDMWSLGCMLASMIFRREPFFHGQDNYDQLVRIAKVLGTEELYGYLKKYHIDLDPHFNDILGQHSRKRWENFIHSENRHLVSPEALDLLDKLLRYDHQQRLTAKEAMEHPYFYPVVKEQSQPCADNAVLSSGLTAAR

Compound `Cc1ccc(-c2ccc3c(ccc4sc5c(c43)NC[C@@H](C)NC5=O)n2)cn1` gave a % of inhibition in assay [1] of 97%.
For `COc1cc(Nc2nc(C)cc(-c3cnn4nc(OC)ccc34)n2)cc(C(F)(F)F)c1`, the % of control came out at 59% in assay [2] and 100% in [3].
`COc1cc(C(=O)N2CC[C@@H](O)[C@@H](N)C2)cc2nc(-c3cc4ccccc4n3CC3CC3)n(C)c12` returned a pXC50 in assay [4] of 5.3 M.
`Cc1cnc(Nc2ccc(F)cc2Cl)nc1-c1c[nH]c(C(=O)N[C@H](CO)c2cccc(Cl)c2)c1` registered a % of inhibition in assay [5] of 7%.
As to `C=CC(=O)Nc1cc(-n2c(=O)ccc3cnc4ccc(-c5ccc(NS(C)(=O)=O)cc5)cc4c32)ccc1C`, the % of control in assay [6] (at 1 µM) turned out to be 100%; in [6] (at 10 µM), 95%.
`O=C(NOC[C@H](O)CO)c1ccc(F)c(F)c1Nc1ccc(I)cc1F` came in with a % of control in [7] of 97%.
Turning to `CC[C@@H]1[C@H](F)C(=O)N[C@@H]1COc1nccc2cc(C(N)=O)c(OC)cc12` [ZIMLOVISERTIB], the % of inhibition in assay [8] was 28.7%.
In assay [9], `COCC(=O)NC/C=C/c1ccc2ncnc(Nc3ccc(Oc4ccc(C)nc4)c(C)c3)c2c1` [CP-724714] had a % of control of 100%.
Take `N#Cc1cccc(-c2c[nH]c3ncnc(N4CCOCC4)c23)c1`: the % of inhibition in [10] came to 61%.
Take `O[C@H]1CC[C@H](Nc2ncc3nc(Nc4c(F)cc(F)cc4F)n([C@H]4CCOC4)c3n2)CC1`: the % of control in assay [11] stood at 35%.
